Laboratory results reported in US10463669B2, “Composition for treating or preventing liver cancer” (Seoul National University R&DB Foundation, priority 2016, dated 2019).

Tests used:
Assay type in all cases: cell-based, human
[1] = system: β-catenin and SetD1A binding to the TERT promoter in Huh7 cells; test: Chromatin immunoprecipitation (ChIP) at the TERT promoter; conditions: HCC (Huh7) cells, with or without 300 μmol/L H2O2
Protocol: As it has been described before (Lim S O, et al. Gastroenterology. 2008; 135: 2128-40, 40 el-8.; Hoffmeyer K, et al. Science. 2012; 336: 1549-54.), several modified ChIP (chromatin immunoprecipitation) tests were carried out. In the presence or absence of a PI3K inhibitor, an AKT inhibitor, or a GSK3β inhibitor, Huh7 cells were cultured for 4 days with or without a treatment of 300 μmol/L H2O2. Under mild shaking for 20 minutes at room temperature, the cells were fixed by using 1% paraformaldehyde. After that, the cells were rinsed twice with ice-cold PBS; resuspended with 400 μL of micrococcal nuclease buffer (50 mmol/L TrisHCl [pH 8.0], 5 mmol/L CaC12, 100 μg/mL BSA, 10 mmol/L KCl, and protease inhibitor cocktail [Roche, Basel, Switzerland; 4693159001]); and disrupted with 2 mm-diameter zirconium beads (Watson); to have micrococcal nuclease digestion (New England Biolabs, Beverly, Mass., USA; M0247S). Chromatin (150 μg) was collected and diluted in a dilution buffer (0.1% NP-40, 2 mmol/L EDTA, 150 mmol/L NaCl, 20 mmol/L TrisHCl [pH 8.0], protease inhibitor cocktail [Roche]), and a phosphatase inhibitor cocktail [Calbiochem]), and then subjected to pre-clearing with 2 μg digested salmon sperm DNA, 10 μL preimmune serum (Santa Cruz Biotechnology; sc-2027), and Dynabeads Protein G (Life Technologies; 1004D) for 2 hours at 4° C. After the immunoprecipitation, 20 μL of Dynabeads Protein G were added thereto and the culture was continued for 2 hours. The Dynabeads were washed continuously for 10 minutes with TSE 1 (0.1% SDS, 1% Triton X-100, 2 mmol/L EDTA, 20 mmol/L TrisHCl, and 150 mmol/L NaCl), TSE II (0.1% SDS, 1% Triton X-100, 2 mmol/L EDTA, 20 mmol/L TrisHCl, and 500 mmol/L NaCl), and buffer III (0.25 mol/L LiCl, 1% NP-40, 1% deoxycholate, 1 mmol/L EDTA, and 10 mmol/L TrisHCl). After that, the beads were washed 3 times with TE buffer, and extraction was made by using 1% SDS and 0.1 mol/L NaHCO3. To have reverse formaldehyde cross-linking, the elution solution was heated overnight at 65° C. By using NucleoSpin DNA clean-up kit, DNA debris were purified. By using primers specific to the TERT promoter region, the PCR amplified product was quantified by qPCR (ABI 7300; Applied Biosystems, Foster City, Calif., USA). The PCR amplification was normalized against the TERT intron. The primer sequences are as follows: β-catenin interaction site for ChIP (forward primer: TCCCGGGTCCCCGGCCCA (SEQ ID NO:8); reverse primer: […] (SEQ ID NO:9)) and TERT intron for ChIP (forward primer: […] (SEQ ID NO:10); reverse primer: […] (SEQ ID NO:11)). For each of the β-catenin interaction site which has been recorded before, 20-22 bp were added. The antibodies that are used are as follows: rabbit polyclonal anti-β-catenin (1:200, Abcam, Cambridge, Mass., USA; ab6302), mouse monoclonal anti-RNA polymerase II (1:50, Covance, Princeton, N.J., USA; MMS-126R), and rabbit polyclonal anti-SETD1A (1:100, Novus Biologicals, Littleton, Colo., USA; NBP1-81513).
Inventors of the present invention made an investigation to see whether or not the increased chromatin accessibility in TERT promoter during TERT transcription is related with β-catenin. To do so, by using intrinsic β-catenin and an antibody against histone methyl transferase SetD1A which has been reported to promote the TERT transcription based on chromatin remodeling, chromatin immunoprecipitation was carried out. When a PI3K or AKT inhibitor is treated together for chromatin immunoprecipitation, β-catenin and SetD1A, which bind to the TERT promoter in HCC cells, were reduced even in the presence of H2O2 (FIGS. 3A and 3B). However, when the treatment is carried out also with a GSK3p inhibitor, increased binding of β-catenin and SetD1A was shown regardless of a treatment with H2O2 (FIG. 3C).

[2] = system: telomere length in HCC cell lines (Huh7 and Hep3B); test: Telomere length (Southern blot, immunoFISH, Flow FISH, quantitative PCR); conditions: HCC cells treated simultaneously with NAC and H2O2
Protocol: Volume of the hybridization buffer was adjusted to 100 μl per 10^5 cells. Next, each sample was cultured for 10 minutes in a water bath at 85° C. […] Total 15,000 to 20,000 nuclei were analyzed for the each separate culture. Telomere fluorescence intensity of the all nuclei at […] phase of the cell cycle was measured by using BD FACS Calibur flow cytometer (Becton Dickinson, Franklin Lakes, N.J., USA) in which CELLQUEST software is used. The established ImmunoFISH protocol (Plentz R R, et al., Hepatology. 2007; 45: 968-76) was used with slight modifications. The paraffin-embedded section was subjected to de-paraffinization using xylene, and then rehydrated using ethanol gradient. Antigen retrieval was carried out by boiling in 100 mmol/L sodium citrate (pH 6.0) for 10 minutes in a microwave. After permeation of proteinase K (15 μg/mL in PBS [pH 7.4]) for 20 minutes at 37° C., 8-oxo-dG-specific antibody (1:100, Abcam, Cambridge, Mass., USA; ab62623) was subjected to 1% BSA dilution in PBS 0.1% Triton X-100 and cultured overnight at room temperature. After washing, the slide was treated with Alexa 647 secondary antibody for 1 hour. […] After denaturation for 6 minutes at 90° C., the sample was hybridized for 2 hours at dark place. […] After washing, the slide was rinsed with PBS containing DAPI, and then sealed with a DAPI sealing agent (mounting medium) (Vector Laboratories, Burlingame, Calif., USA). Simultaneously, the inventors of the present invention carried out centromere staining as an internal control for telomere staining and 8-oxo-dG staining. […] For quantification of the telomere fluorescence intensity, centromere fluorescence intensity, and 8-oxo-dG fluorescence intensity, the same exposure time was employed. The telomere fluorescence level and 8-oxo-dG fluorescence level of tumor tissues were calculated by division of the fluorescence level in non-tumor tissues corresponding to 5 random fields. The image analysis was carried out by using Image-Pro plus 6.0 software (Media Cybernetics, Inc., Rockville, Md., USA). Telomere length was determined by using the non-radioactive chemical fluorescence TeloTAGGG telomere length assay (Roche; Cat. No. 12 209 136 001) according to the manual. Genomic DNA was separated from HCC cells using GeneJET Genomic DNA Purification Kit (Thermo Scientific; #K0721), and then 4 μg of the genomic DNA was digested for 16 hours at 37° C. with 20 units of […] digested DNA was subjected to 0.8% agarose gel electrophoresis, and then transferred to a positively charged nylon membrane using capillary transfer. The blotted DNA was hybridized for 16 hours at 42° C. with a digoxigenin (DIG)-labeled probe that is specific to the telomere repeat. After that, it was cultured for 30 minutes at room temperature with DIG-specific antibody conjugated to an alkaline phosphatase Based on quantitative PCR analysis using the genomic DNA extracted from cells, relative telomere repeat copy number (T) and single copy number (S) were determined, and the calculation was made like previous method in which T/S ratio is continuously modified (Cawthon R M. Telomere length measurement by a novel monochrome multiplex quantitative PCR method. Nucleic Acids Res. 2009; 37: e21).

[3] = system: TERT expression in HCC cell lines (Huh7 and Hep3B); test: TERT expression, quantitative real time-PCR and immunoblot; conditions: HCC cells treated simultaneously with NAC and H2O2
Protocol: Medium was exchanged every day, and the aforementioned cells were cultured for 4 days in 300 μmol/L hydrogen peroxide (H2O2) (Sigma Aldrich; H1009). In several experiments, the cells were treated for 1 hour with 5 mmol/L N-acetylcysteine (NAC) (Sigma Aldrich; A7250), 25 μmol/L idelalisib (LC Laboratoties, Woburn, Mass., USA; I-7447), 25 μmol/L perifosine (LC Laboratoties, Woburn, Mass., USA; P-6522), or 30 μmol/L GSK3β inhibitor (GSK3β inhibitor XI) (Santa Cruz; sc-204770) (31) before adding H2O2. Furthermore, sterilized distilled water (pH 7.0) was used as a negative control (i.e., mock treatment).
PCR was carried out by using TOPrealm qPCR 2×PreMIX (SYBR Green with high ROX) (Enzynomics, Daejeon, Korea; RT501M) and ABI Prism 7300 thermal cycler (Applied Biosystems, Foster City, Calif., USA). […] To examine the primer specificity, a dissociation step was additionally included.
Total 2×10^5 cells were boiled for 5 minutes in 2×SDS sample buffer (100 mmol/L TrisHCl [pH 6.8], 4% SDS, 0.2% bromophenol blue, 20% glycerol, and 200 mmol/L β-mercaptoethanol), and then subjected to SDS-PAGE and Western blotting. To detect the TERT, the cells were cultured in 2×SDS sample buffer for 15 minutes at 55° C. TERT-specific (1:300, Rockland Immunochemicals, Gilbertsville, Pa., USA; 600-401-252), AKT-specific (1:1000, Cell Signaling Technology; #9272), phospho-AKT-specific (1:2000, Cell Signaling Technology; #4060), GAPDH-specific (1:2000, Santa Cruz Biotechnology; sc-47724), or β-actin-specific (1:2000, Sigma-Aldrich, St. Louis, Mo., USA; A5441) antibody was diluted in 5% skim milk or bovine serum albumin with TBS-Tween 20, cultured overnight at 4° C., washed, and cultured with HRP-conjugated secondary antibody (1:1000, Abcam; ab131368, or ab131366). By using FUSION-SOLO imager (Vilber Lourmat, Marne La Vallee, France), a chemical fluorescence image was obtained.

## O=C1NC(=O)C(c2cn(CCCO)c3ncccc23)=C1c1cnccn1 [GSK3β inhibitor XI]
[1]
  SetD1A binding to the TERT promoter: increased
  β-catenin binding to the TERT promoter: increased

## CC(=O)N[C@@H](CS)C(=O)O [NAC, N-acetylcysteine]
[2]
  H2O2-induced increased telomere length: disappeared
[3]
  H2O2-induced increased TERT expression: disappeared

## CCCCCCCCCCCCCCCCCCOP(=O)([O-])OC1CC[N+](C)(C)CC1 [perifosine]
[1]
  SetD1A binding to the TERT promoter: reduced
  β-catenin binding to the TERT promoter: reduced
